According to patent US20210121527A1, “METHODS OF TREATING MINIMAL RESIDUAL CANCER” (ICAHN SCHOOL OF MEDICINE AT MOUNT SINAI, priority 2018, published 2021):

Key:
PERK = target: T1, PERK (Mus musculus, UniProt Q9Z2B5); assay: IHC of P-PERK and P-eIF2α in tissues of treated MMTV-HER2 mice; format: in vivo; settings: 50 mpk i.p. daily, two weeks
T1 construct: from tissue; host or cells: mammary gland and pancreas sections of MMTV-HER2 (FVB/N-Tg(MMTVneu)) female mice
Experimental: Mice, tumor growth, and tissue processing: The FVB/N-Tg (MMTVneu) mouse strain was obtained from Jackson Laboratories (Sacramento, Calif.). […] Before being used in any experiment, females underwent one round of pregnancy and at least two weeks of no lactation after weaning. Females between 24-32 weeks of age were injected intraperitoneally with vehicle (90% corn oil, 10% ethanol) or LY4 (50 mpk) daily, for two weeks. For the combination treatment, females 24-32 weeks of age were treated daily by oral gavage with Abemaciclib (50 mpk) for 4 weeks before starting the treatment described earlier with LY4. Tumor volumes were measured using the formula (Dxd^2)/2, where D is the longest and d is the shortest diameter. For CTC count, animals were anesthetized and whole blood was extracted by cardiac puncture. Mammary glands, lungs, and tumors were collected and fixed in 10% buffered formalin overnight before paraffin embedding. The bone marrow from the two lower limbs was flushed with a 26 G needle and further processed by Ficoll density gradient centrifugation. For CTC as well as for DTC detection in bone marrow, tissues were depleted of mature hematopoietic cells by anti-mouse antibody-labeled magnetic bead separation (Miltenyi Biotec, San Diego, Calif.) before fixation in formalin for 20 minutes at 4° C. […]

[1] = system: HER2 in MCF10A-HER2 cells; assay: HER2 signaling Western blot and surface biotinylation/endocytosis assays; format: cell-based, human; settings: 2 μM
Text: Immunoblot analysis: Cells were lysed in RIPA buffer and protein analyzed by immunoblotting as described previously (Ranganathan et al., “Functional Coupling of p38-Induced Up-Regulation of BiP and Activation of RNA-Dependent Protein Kinase-Like Endoplasmic Reticulum Kinase to Drug Resistance of Dormant Carcinoma Cells,” Cancer Res. 66:1702-1711 (2006), which is hereby incorporated by reference in its entirety). Membranes were blotted using the additional following antibodies: P-PERK (T982) (Tenkerian et al., “mTORC2 Balances AKT Activation and eIF2alpha Serine 51 Phosphorylation to Promote Survival Under Stress,” Mol. Cancer Res. 13:1377-1388 (2015), which is hereby incorporated by reference in its entirety), PERK (Santa Cruz, Dallas, Tex.), P-EGFR(Y1148), EGFR, P-AKT(S473), P-S6 (S235/236) (Cell signaling, Danvers, Mass.), GAPDH (Millipore, Darmstadt, Germany), and β-Tubulin (Abcam, Cambridge, Mass.). For induction of ER stress, MCF10A-HER2 cells were plated in low adhesion plates for 24 hours before collection.
Cell surface biotinylation and endocytosis assay: For cell surface biotinylation, Pierce cell surface protein isolation kit was used following manufacturer's instructions with minor changes. Briefly, MCF10A-HER2 cells were serum- and EGF-starved and treated+/−LY4 for 24 hours before being stimulated with +/−EGF (100 ng/ml) for 20′. Then, cells were washed with ice-cold PBS and surface proteins biotinylated for 30 minutes at 4° C. After quenching, cells were harvested and lysed using RIPA buffer. Protein lysates were incubated with NeutrAvidin agarose beads and the bound proteins were released by incubation with SDS-PAGE sample buffer containing DTT (50 mM). For endocytosis assays (Cihil et al., “The Cell-Based L-Glutathione Protection Assays to Study Endocytosis and Recycling of Plasma Membrane Proteins,” J. Vis. Erp. e50867 (2013), which is hereby incorporated by reference in its entirety), cells were treated similarly but before treatment with EGF cell surface proteins were biotinylated. After 20 minute incubation+/−EGF (100 ng/ml) at 37° C. […]

T1 sequence (Q9Z2B5 29-1114): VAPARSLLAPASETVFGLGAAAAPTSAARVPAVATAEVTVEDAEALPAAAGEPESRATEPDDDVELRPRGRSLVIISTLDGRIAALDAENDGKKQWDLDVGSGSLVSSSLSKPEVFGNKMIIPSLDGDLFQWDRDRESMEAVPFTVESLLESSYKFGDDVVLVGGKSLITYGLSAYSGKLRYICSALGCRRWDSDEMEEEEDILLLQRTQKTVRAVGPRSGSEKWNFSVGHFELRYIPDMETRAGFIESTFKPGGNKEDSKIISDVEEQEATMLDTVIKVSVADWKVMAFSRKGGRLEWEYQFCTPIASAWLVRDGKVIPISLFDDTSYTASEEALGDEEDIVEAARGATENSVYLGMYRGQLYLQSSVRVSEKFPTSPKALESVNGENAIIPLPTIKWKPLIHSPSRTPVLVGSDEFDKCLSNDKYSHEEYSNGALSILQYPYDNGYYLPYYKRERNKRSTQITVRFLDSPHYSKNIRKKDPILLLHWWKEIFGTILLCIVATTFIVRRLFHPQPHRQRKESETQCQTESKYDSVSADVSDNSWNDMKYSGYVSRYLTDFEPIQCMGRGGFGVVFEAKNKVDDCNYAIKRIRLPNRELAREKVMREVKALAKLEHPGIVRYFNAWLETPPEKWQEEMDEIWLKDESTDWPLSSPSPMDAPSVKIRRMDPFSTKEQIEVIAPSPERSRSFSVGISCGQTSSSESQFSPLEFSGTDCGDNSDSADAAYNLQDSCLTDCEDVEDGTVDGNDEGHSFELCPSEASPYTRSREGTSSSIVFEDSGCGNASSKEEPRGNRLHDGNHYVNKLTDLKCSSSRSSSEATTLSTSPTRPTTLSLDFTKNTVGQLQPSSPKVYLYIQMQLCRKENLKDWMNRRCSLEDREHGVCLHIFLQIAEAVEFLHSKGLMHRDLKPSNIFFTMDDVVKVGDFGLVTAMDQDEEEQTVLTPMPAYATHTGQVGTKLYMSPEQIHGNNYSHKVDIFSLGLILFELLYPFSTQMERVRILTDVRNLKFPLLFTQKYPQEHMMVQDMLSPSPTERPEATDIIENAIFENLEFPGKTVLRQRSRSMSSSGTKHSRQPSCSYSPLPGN

Cc1cc(NC(=O)[C@H](O)c2cc(F)cc(F)c2)ccc1-c1cnc(N)c(C(=O)NC(C)C)c1 [LY4, 2-amino-5-[4-[[(2R)-2-(3,5-difluorophenyl)-2-hydroxy-acetyl]amino]-2-methyl-phenyl]-N-isopropyl-pyridine-3-carboxamide]
P-PERK and P-eIF2α levels in mammary gland ducts and pancreatic tissue (PERK): significant decrease in P-PERK and P-eIF2α levels
P-HER2 and total HER2 on the cell surface (surface biotinylation) [1]: decreased the amount of P-HER2 and total HER2 in the cell surface
endocytosed phospho-HER2 and total HER2 (reversible surface biotinylation) [1]: increasing endocytosed phospho-HER2 and total HER2
P-EGFR, P-HER2, P-AKT, P-S6, P-ERK1/2 levels (Western blot) ([1]; starved cells +/- EGF 100 ng/ml, 15 minutes): decreased both the basal and EGF-induced levels of P-EGFR and P-HER2
